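Compound exposure: 48 hours, 5 concentrations, 96-well plates. TGI denotes the concentration required for complete inhibition of growth.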
Experiments:
Assay in all cases: DTP human tumour cell line panel, 48 h
SK-MEL-2 melanoma = system: SK-MEL-2 melanoma
CCRF-CEM leukemia = system: CCRF-CEM leukemia
MOLT-4 leukemia = system: MOLT-4 leukemia
LOX IMVI melanoma = system: LOX IMVI melanoma
EKVX NSCLC = system: EKVX NSCLC
TK-10 renal = system: TK-10 renal
786-0 renal = system: 786-0 renal
CAKI-1 renal = system: CAKI-1 renal
ACHN renal = system: ACHN renal
KM12 colon = system: KM12 colon
OVCAR-5 ovarian = system: OVCAR-5 ovarian
NCI-H460 lung = system: NCI-H460 lung
RPMI-8226 leukemia = system: RPMI-8226 leukemia
SN12C renal = system: SN12C renal

`COc1cc2c(cc1O)[C@H](C)C(c1ccc(OC)c(OC)c1)O2` (some centres undefined) showed a TGI (SK-MEL-2 melanoma) of 12.8 µM, a TGI (CCRF-CEM leukemia) of 25.6 µM and a TGI (MOLT-4 leukemia) of 23.9 µM. For the same compound, the TGI (LOX IMVI melanoma) was 16 µM, the TGI (EKVX NSCLC) was > 100 µM and the TGI (TK-10 renal) was 30.1 µM. For the same compound, the TGI (786-0 renal) was 23.8 µM, the TGI (CAKI-1 renal) was 15.9 µM and the TGI (ACHN renal) was 22.4 µM. The TGI (KM12 colon) was > 100 µM, the TGI (OVCAR-5 ovarian) was > 100 µM and the TGI (NCI-H460 lung) was 4.87 µM.
Work on `CCCC/C=C/C=C/C=C/CCCCCCCC(=O)OCC(COC(=O)CCCCCCC/C=C/C1C=CC(CCCC)C(C(=O)O)C1C(=O)O)OC(=O)CCCCCCC/C=C/C=C/C=C/CCCC` (centres undefined) (tested in a mixture with another compound) yielded a TGI (SK-MEL-2 melanoma) of 29.5 µM, a TGI (CCRF-CEM leukemia) of 34.2 µM and a TGI (MOLT-4 leukemia) of 47.2 µM. It also gave a TGI (LOX IMVI melanoma) of 27.5 µM, a TGI (EKVX NSCLC) of 43.4 µM and a TGI (RPMI-8226 leukemia) of 15 µM. The TGI (TK-10 renal) was 37.7 µM, the TGI (786-0 renal) was 31.7 µM and the TGI (CAKI-1 renal) was 76.1 µM. For the same compound, the TGI (ACHN renal) was 33.2 µM, the TGI (KM12 colon) was 34.6 µM and the TGI (OVCAR-5 ovarian) was 43.1 µM. For the same compound, the TGI (SN12C renal) was 44.3 µM and the TGI (NCI-H460 lung) was > 100 µM.
For `COc1ccc(C2Oc3cc(OC)c(OC)cc3C2CCl)cc1OC` (centres undefined), the TGI (SK-MEL-2 melanoma) was > 100 µM, the TGI (CCRF-CEM leukemia) was > 100 µM and the TGI (MOLT-4 leukemia) was > 100 µM. For the same compound, the TGI (LOX IMVI melanoma) was > 100 µM, the TGI (EKVX NSCLC) was > 100 µM and the TGI (RPMI-8226 leukemia) was > 100 µM. The TGI (TK-10 renal) was > 100 µM, the TGI (786-0 renal) was > 100 µM and the TGI (CAKI-1 renal) was > 100 µM. For the same compound, the TGI (ACHN renal) was > 100 µM, the TGI (KM12 colon) was > 100 µM and the TGI (OVCAR-5 ovarian) was > 100 µM. For the same compound, the TGI (SN12C renal) was > 100 µM and the TGI (NCI-H460 lung) was > 100 µM.
`O=c1[nH]c2cc(Cl)ccc2nc1/C(=N\Nc1ccccc1)C(O)c1ccc(Cl)c(Cl)c1` (centres undefined) was tested, and the TGI (SK-MEL-2 melanoma) was > 100 µM, the TGI (CCRF-CEM leukemia) was > 100 µM and the TGI (MOLT-4 leukemia) was > 100 µM. For the same compound, the TGI (LOX IMVI melanoma) was > 100 µM, the TGI (EKVX NSCLC) was > 100 µM and the TGI (RPMI-8226 leukemia) was > 100 µM. The TGI (TK-10 renal) was > 100 µM, the TGI (786-0 renal) was > 100 µM and the TGI (ACHN renal) was > 100 µM. The TGI (KM12 colon) was > 100 µM, the TGI (OVCAR-5 ovarian) was > 100 µM and the TGI (SN12C renal) was > 100 µM. The TGI (NCI-H460 lung) was > 100 µM.
`COc1cc(C2C(Cl)C(=O)N2n2cnc3ccccc3c2=O)ccc1O` (centres undefined) was tested, and the TGI (SK-MEL-2 melanoma) was > 100 µM, the TGI (CCRF-CEM leukemia) was > 100 µM and the TGI (MOLT-4 leukemia) was > 100 µM. For the same compound, the TGI (LOX IMVI melanoma) was > 100 µM, the TGI (EKVX NSCLC) was > 100 µM and the TGI (RPMI-8226 leukemia) was > 100 µM. The TGI (TK-10 renal) was > 100 µM, the TGI (786-0 renal) was > 100 µM and the TGI (CAKI-1 renal) was > 100 µM. For the same compound, the TGI (ACHN renal) was > 100 µM, the TGI (KM12 colon) was > 100 µM and the TGI (OVCAR-5 ovarian) was > 100 µM. For the same compound, the TGI (SN12C renal) was > 100 µM and the TGI (NCI-H460 lung) was > 100 µM.
For `CNC(=O)NCCCC(NC(C)=O)C(=O)NCc1ccccc1` (centres undefined), the TGI (SK-MEL-2 melanoma) was > 100 µM, the TGI (CCRF-CEM leukemia) was > 100 µM and the TGI (MOLT-4 leukemia) was > 100 µM. The TGI (LOX IMVI melanoma) was > 100 µM, the TGI (EKVX NSCLC) was > 100 µM and the TGI (RPMI-8226 leukemia) was > 100 µM. For the same compound, the TGI (TK-10 renal) was > 100 µM, the TGI (786-0 renal) was > 100 µM and the TGI (CAKI-1 renal) was > 100 µM. The TGI (ACHN renal) was > 100 µM, the TGI (KM12 colon) was > 100 µM and the TGI (OVCAR-5 ovarian) was > 100 µM. For the same compound, the TGI (SN12C renal) was > 100 µM and the TGI (NCI-H460 lung) was > 100 µM.
Work on `COCCOCOC(CCCCO)c1cc(C)c(O[Si](C)(C)C(C)(C)C)c(C)c1` (centres undefined) yielded a TGI (SK-MEL-2 melanoma) of 21.9 µM, a TGI (CCRF-CEM leukemia) of 18.1 µM and a TGI (MOLT-4 leukemia) of 13.2 µM. It also gave a TGI (LOX IMVI melanoma) of 18.7 µM, a TGI (EKVX NSCLC) of 22.6 µM and a TGI (RPMI-8226 leukemia) of 11.6 µM. The TGI (TK-10 renal) was 27.3 µM, the TGI (786-0 renal) was 24.4 µM and the TGI (ACHN renal) was 21.6 µM. For the same compound, the TGI (KM12 colon) was 18.6 µM, the TGI (OVCAR-5 ovarian) was 26.7 µM and the TGI (SN12C renal) was 8.73 µM. For the same compound, the TGI (NCI-H460 lung) was 20.2 µM.

Reference: PubChem BioAssay (NCI)
